# From patent publication US6492416B1, “4,5-diaryl-3(2H)-furanone derivatives as cyclooxygenase-2 inhibitors” (Pacific Corporation, priority 1999, dated 2002)
# Columns and labels:
# [1] = target: T1, COX-1 (Mus musculus, UniProt P22437); test: Evaluation of COX-1 activity: PGE2 formation in mouse peritoneal macrophages without aspirin and LPS treatment; format: cell-based
# T1 sequence (P22437 27-602): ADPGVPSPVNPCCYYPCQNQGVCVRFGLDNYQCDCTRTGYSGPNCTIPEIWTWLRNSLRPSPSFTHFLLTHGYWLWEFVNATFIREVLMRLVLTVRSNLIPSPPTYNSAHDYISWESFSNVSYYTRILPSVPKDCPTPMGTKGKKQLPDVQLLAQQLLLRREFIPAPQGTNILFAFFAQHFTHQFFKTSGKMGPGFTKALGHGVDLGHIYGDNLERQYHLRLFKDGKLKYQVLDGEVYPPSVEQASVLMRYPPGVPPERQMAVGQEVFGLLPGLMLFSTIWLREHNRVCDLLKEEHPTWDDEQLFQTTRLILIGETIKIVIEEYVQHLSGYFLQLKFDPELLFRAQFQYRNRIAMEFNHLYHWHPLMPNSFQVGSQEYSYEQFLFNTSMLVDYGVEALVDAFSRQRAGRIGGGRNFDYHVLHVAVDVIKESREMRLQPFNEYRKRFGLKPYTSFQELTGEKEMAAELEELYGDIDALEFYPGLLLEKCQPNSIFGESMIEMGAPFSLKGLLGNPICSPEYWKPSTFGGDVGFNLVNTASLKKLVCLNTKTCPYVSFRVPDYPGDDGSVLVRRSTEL
# Procedure, shortened: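 Peritoneal macrophages from C57BL/6 mice, without aspirin or LPS treatment, were plated at 1×10^6 cells/ml and fixed 2 h at 37 °C. Cells were preincubated 10 min, then given 10 μM arachidonic acid plus compound for 10 min; PGE2 was measured by RIA or EIA. IC50 came from 4–5 concentrations.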
# [2] = tested on: male SD rats; test: Carrageenan-induced thermal hyperalgesia assay; format: in vivo, rat; settings: 3 hours
# Description: Male SD rats weighing 170˜220 g were fasted but with free access to water for at leat 16 hours prior to testing. The rats were administered with a compound of this invention suspended in 20 ml 0.5% methylcellulose/0.025% Tween-20, or with vehicle only. Then the rats were given […] of 1% carrageenan in saline or […] saline only into the plantar surface of the left hindpaw by injection. Three hours later, the nociceptive responses to thermal stimuli were assessed as follows: Rats, which were placed in a transparent plastic chamber with a glass floor, were allowed to acclimate to their environment for 10 minutes prior to the testing. The withdrawal latency period in seconds was determined for the control and the compound treated group, and a percent inhibition in the withdrawal latency was calculated to estimate the analgesic effect of the compound [Pain 32, 77 (1988)]. In this study 6 animals were used for each group.
# [3] = tested on: ICR mice; test: Acetic acid-induced writhing test; format: in vivo, mouse; settings: oral gavage
# Description: ICR mice weighing 18˜22 g were maintained in a controlled lighting environment (12 hours on/12 hours off) and fasted overnight prior analgesic testing. Mice were administered with a compound of this invention dissolved in 10:10:80 ethanol/Tween 80/saline or vehicle only by oral gavage. The administered vehicle volume was controlled to be 10 ml/kg body weight. One hour later, the animals were treated with 0.2 ml of 1.2% acetic acid by peritoneal injection. 6 minutes later, the number of abdominal constrictions was counted for a 6 minutes period. The antinociceptive activity was expressed as the reduction in the number of abdominal constrictions, compared with that of the placebo group [J. Med. Chem. 39, 4942 (1996)]. ED50 of the mouse writhing test denotes a dose level at which the number of abdominal constrictions is half that of the placebo group. Ten animals per group were used for this study.
SMILES,"IC50, μg/ml COX-1 [1] [µg/mL]",% Inhibition at 1.0 mg/kg body weight (rat hyperalgesia) [2] [%],ED50 (mouse writhing) [3] [mg/kg body weight]
CC1(C)OC(c2ccc(S(N)(=O)=O)cc2)=C(c2cccc(Cl)c2)C1=O [Example 126],3.82,–,–
"CC1(C)OC(c2ccc(S(C)(=O)=O)cc2)=C(c2cc(F)cc(F)c2)C1=O [Example 11, 4-(3,5-Difluorophenyl)-2,2-dimethyl-5-{4-(methylsulfonyl)phenyl}-3(2H)-furanone]",20,–,–
"CC1(C)OC(c2ccc(S(C)(=O)=O)cc2)=C(c2cccc(F)c2)C1=O [Example 4, 2,2-Dimethyl-4-(3-fluorophenyl)-5-{4-(methylsulfonyl)phenyl}-3(2H)-furanone]",5,27,8.3

# More lines, main results first:
"IC50, μg/ml COX-1 [1] [µg/mL]",SMILES,% Inhibition at 1.0 mg/kg body weight (rat hyperalgesia) [2] [%],ED50 (mouse writhing) [3] [mg/kg body weight]
3,CC1(C)OC(c2ccc(S(N)(=O)=O)cc2F)=C(c2ccc(F)cc2)C1=O [Example 334],–,–
1.02,"CC1(C)OC(c2ccc(S(N)(=O)=O)cc2)=C(c2cccc(F)c2)C1=O [Example 129, 5-{4-(aminosulfonyl)phenyl}-2,2-dimethyl-4-(3-fluorophenyl)-3(2H)-furanone]",92,12.3
